Literature values as cited in paper PMC9389927 (Renal Failure, 2022).

Tested on: experimental model of AKI

For “IGF-1: long-chain polypeptide composed of dozens of amino acids, including four domains, A, B, C and D”, the Glomerular filtration rate is given as “increased the glomerular filtration rate”.
